Data as given in patent US11040981B2, “Pyrrolotriazine compounds and methods of inhibiting TAM kinases” (Syros Pharmaceuticals, Inc., priority 2017, dated 2021).

System: colon carcinoma CT-26 cells
Experiment: CT-26 syngeneic tumor growth inhibition, alone or with anti-PD1 antibody
Assay type: in vivo, Balb/c female mice
Settings: Compound 124 100 mg/kg oral twice daily combined with anti-PD1 antibody (clone RMP1-14) 10 mg/kg IP biweekly; compared with either agent as monotherapy; FIG. 3
Description: BLAB/c syngeneic mice challenged with colon carcinoma CT-26 cells were used to test the tumor growth inhibitory activity of Compound 124 and an anti-PD1 antibody alone or in combination. CT-26 tumor cells were maintained in vitro as a monolayer culture in RPMI-1640 medium supplemented with 10% heat inactivated fetal bovine serum, 100 U/ml penicillin and 100 μg/ml streptomycin at 37° C. in an atmosphere of 5% CO2 in air. The tumor cells were routinely subcultured twice weekly by trypsin-EDTA treatment. The cells growing in an exponential growth phase were harvested and counted for tumor inoculation. […]
Mice (8 for each regimen) were dosed with one of the following regimens: (1) twice daily oral dosing with 100 mg/kg of Compound 124; (2) biweekly IP injections with 10 mg/kg of anti-PD1 antibody (clone RMP1-14); (3) a combination of twice daily Compound 124 (100 mg/kg) and biweekly anti-PD1 antibody (10 mg/kg) or (4) an orally dosed vehicle control. Subcutaneous tumor volumes were measured three times per week starting at three days post-first dosing using caliper measurements in 2 dimensions (looking down at the tumor, using the calipers to make 2 diameter measurements at right angles to each other). The tumor volume was then calculated using the following standard formula: Tumor Volume=0.5*A*B^2, wherein A=longest diameter of the tumor; and B=shortest diameter of the tumor.

COC[C@H](C)Nc1ncc2c(-c3ccc(CN4CCN(C)CC4)cc3)cc([C@H]3CC[C@H](O)CC3)n2n1 (single isomer, unassigned) [Compound 124]
tumor growth (subcutaneous tumor volume): slower tumor growth
